Assay results taken from US9018388B2, “Pesticidal compositions and processes related thereto” (Dow AgroSciences LLC, priority 2012, dated 2015).

How the values were obtained:
Type in all cases: in vivo
[1] = test system: Beet Armyworm (BAW) (Spodoptera exigua); experiment: Bioassay on beet armyworm (BAW), 128-well diet tray assay; settings: Beet armyworm, 50 μg/cm^2; for pest or weed control at 50 µg/cm2, 50 µg/cm2: Spodoptera exigua, read-out: % Mortality BAW 50 μg/cm^2
Method in brief: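 Second-instar Spodoptera exigua larvae, one to five per well, on artificial diet treated with 50 μg/cm^2 compound in 90:10 acetone-water and dried, eight wells per compound. Held at 25 °C, 14:10 light-dark for five to seven days; percent mortality averaged over wells.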

[2] = test system: Corn Earworm (CEW) (Helicoverpa zea); experiment: Bioassay on corn earworm (CEW), 128-well diet tray assay; settings: Corn earworm, 50 μg/cm^2; for pest or weed control at 50 µg/cm2, 50 µg/cm2: Helicoverpa zea, read-out: % Mortality CEW 50 μg/cm^2
Method in brief: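 Second-instar Helicoverpa zea larvae (one to five per well) placed on artificial diet treated with 50 μg/cm^2 compound in 90:10 acetone-water, dried, eight wells per compound. Held at 25 °C, 14:10 light-dark, five to seven days; percent mortality averaged over wells.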

[3] = test system: Green Peach Aphid (GPA) (Myzus persicae); experiment: Bioassay on green peach aphid (GPA), foliar spray on cabbage seedlings; settings: 72 h, read-out: % Mortality GPA 200 ppm
Experimental: Bioassays on Green Peach Aphid (“GPA”) (Myzus persicae)
Certain molecules disclosed in this document were tested against GPA using procedures described in the following example. In the reporting of the results, the “GPA Rating Table” was used (See Table Section).
Cabbage seedlings grown in 3-inch pots, with 2-3 small (3-5 cm) true leaves, were used as test substrate. The seedlings were infested with 20-50 GPA (wingless adult and nymph stages) one day prior to chemical application. Four pots with individual seedlings were used for each treatment. Test compounds (2 mg) were dissolved in 2 mL of acetone/methanol (1:1) solvent, forming stock solutions of 1000 ppm test compound. The stock solutions were diluted 5× with 0.025% Tween 20 in H2O to obtain the solution at 200 ppm test compound. A hand-held aspirator-type sprayer was used for spraying a solution to both sides of […] leaves until runoff. Reference plants (solvent check) were sprayed with the diluent only containing 20% by volume of acetone/methanol (1:1) solvent. Treated plants were held in a holding room for three days at approximately 25° C. and ambient relative humidity (RH) prior to grading. Evaluation was conducted by counting the number of live aphids per plant under a microscope. Percent Control was measured by using Abbott's correction formula (W. S. Abbott, “A Method of Computing the Effectiveness of an Insecticide” J. Econ. Entomol. 18 (1925), pp. 265-267) as follows. Corrected%Control=100*(X−Y)/X • where • X=No. of live aphids on solvent check plants and • Y=No. of live aphids on treated plants
The results are indicated in the table entitled “Table 5: Biological Results” (See Table Section).

| SMILES | pest or weed control at 50 µg/cm2, 50 µg/cm2 [1] | pest or weed control at 50 µg/cm2, 50 µg/cm2 [2] | pest or weed control at 200 ppm [3] | % Mortality BAW 50 μg/cm^2 [1] | % Mortality CEW 50 μg/cm^2 [2] |
| --- | --- | --- | --- | --- | --- |
| FC(F)(F)Oc1ccc(-n2cnc(-c3ccc(/C=N/N=C4\SCCCN4c4ccccc4-c4ccccc4)cc3)n2)cc1 [Compound 194C] | 50 to 100% | 50 to 100% | 0 to 80% | – | – |
| CC(C)c1ccccc1/N=C1\SCCCN1/N=C/c1ccc(-c2ncn(-c3ccc(C(F)(F)F)cc3)n2)cc1 [Compound 87C, (2Z,NE)-2-((2-isopropylphenyl)imino)-N-(4-(1-(4-(trifluoromethyl)phenyl)-1H-1,2,4-triazol-3-yl)benzylidene)-1,3-thiazinan-3-amine] | – | – | 0 to 80% | – | – |
| CCc1cccc(C)c1N1/C(=N/N=C/c2ccc(-c3ncn(-c4ccc(OC(F)(F)F)cc4)n3)cc2)SCC1C (centres unmarked) [Compound 156C] | 50 to 100% | 50 to 100% | 0 to 80% | – | – |
| Cc1cccc(C)c1N1CCCS/C1=N\N=C\c1ccc(-c2ncn(-c3ccc(OC(F)(F)F)cc3)n2)cc1 [Compound 182C] | 50 to 100% | 50 to 100% | 0 to 80% | – | – |
| COc1ccc(C(C)/N=C(/N/N=C/c2ccc(-c3ncn(-c4ccc(OC(F)(F)F)cc4)n3)cc2)SCC(=O)O)cc1F (centres unmarked) [Compound 53C] | 0 to 50% | – | 0 to 80% | – | – |
| Cc1cccc(C)c1/N=C(/N/N=C/c1ccc(-c2ncn(-c3ccc(OC(F)(F)F)cc3)n2)cc1)SCc1c(F)cccc1F [Compound 5C] | 50 to 100% | 50 to 100% | 0 to 80% | – | – |
| COc1ccc(C)cc1N1CCCS/C1=N\N=C\c1ccc(-c2ncn(-c3ccc(OC(F)(F)F)cc3)n2)cc1 [Compound 204C] | 50 to 100% | 50 to 100% | 0 to 80% | – | – |
| Cc1cccc(C)c1-n1c(-c2ccc(C(=O)O)cc2)cs/c1=N\N=C\c1ccc(-c2ncn(-c3ccc(OC(F)(F)F)cc3)n2)cc1 [Compound 77C] | 50 to 100% | 50 to 100% | 0 to 80% | – | – |
| CCOc1ccccc1N1CCS/C1=N\N=C\c1ccc(-c2ncn(-c3ccc(OC(F)(F)F)cc3)n2)cc1 [Compound 146C] | 50 to 100% | 50 to 100% | 0 to 80% | – | – |
| Fc1cccc(Cl)c1N1CCCS/C1=N\N=C\c1ccc(-c2ncn(-c3ccc(OC(F)(F)F)cc3)n2)cc1 [Compound 188C] | 50 to 100% | 50 to 100% | 0 to 80% | – | – |
| FC(F)(F)Oc1ccc(-n2cnc(-c3ccc(/C=N/N=C4\SCCCN4c4ccccc4C4CC4)cc3)n2)cc1 [Compound 186C] | 50 to 100% | 50 to 100% | 0 to 80% | – | – |
| Cc1cccc(C)c1N1C(=O)CS/C1=N\N=C\c1ccc(-c2ncn(-c3ccc(OC(F)(F)F)cc3)n2)cc1 [Compound 72C] | – | – | 0 to 80% | A (50-100) | A (50-100) |
| Cc1cc(Br)cc(C)c1N1CCCS/C1=N\N=C\c1ccc(-c2ncn(-c3ccc(OC(F)(F)F)cc3)n2)cc1 [Compound 203C] | 50 to 100% | 50 to 100% | 0 to 80% | – | – |
| Fc1cccc(F)c1N1CCCS/C1=N\N=C\c1ccc(-c2ncn(-c3ccc(OC(F)(F)F)cc3)n2)cc1 [Compound 189C] | 50 to 100% | 50 to 100% | 0 to 80% | – | – |
| COC(=O)c1ccc(CS/C(=N\c2c(C)cccc2C)N/N=C/c2ccc(-c3ncn(-c4ccc(OC(F)(F)F)cc4)n3)cc2)cc1 [Compound 12C] | 50 to 100% | 50 to 100% | 0 to 80% | – | – |
| Cc1cccc(C)c1/N=C(/N/N=C/c1ccc(-c2ncn(-c3ccc(OC(F)(F)F)cc3)n2)cc1)SCOC(=O)C1CCCC1 [Compound 35C] | 50 to 100% | 50 to 100% | 0 to 80% | – | – |
| CCc1ccccc1N1CCS/C1=N\N=C\c1ccc(-c2ncn(-c3ccc(OC(F)(F)F)cc3)n2)cc1 [Compound 133C] | 50 to 100% | 50 to 100% | 0 to 80% | – | – |

| SMILES | pest or weed control at 50 µg/cm2, 50 µg/cm2 [1] | pest or weed control at 50 µg/cm2, 50 µg/cm2 [2] | pest or weed control at 200 ppm [3] | % Mortality BAW 50 μg/cm^2 [1] | % Mortality CEW 50 μg/cm^2 [2] |
| --- | --- | --- | --- | --- | --- |
| COc1cccc(N2CCS/C2=N\N=C\c2ccc(-c3ncn(-c4ccc(OC(F)(F)F)cc4)n3)cc2)c1 [Compound 147C] | 50 to 100% | 50 to 100% | 0 to 80% | – | – |
| COc1ccccc1N1C(=O)CS/C1=N\N=C\c1ccc(-c2ncn(-c3ccc(OC(F)(F)F)cc3)n2)cc1 [Compound 92C] | 50 to 100% | 50 to 100% | 0 to 80% | – | – |
| Cc1cc(C)c(N2CCS/C2=N\N=C\c2ccc(-c3ncn(-c4ccc(OC(F)(F)F)cc4)n3)cc2)c(C)c1 [Compound 139C] | 50 to 100% | 50 to 100% | 0 to 80% | – | – |
| COc1cc(Cl)c(/N=C(/N/N=C/c2ccc(-c3ncn(-c4ccc(OC(F)(F)F)cc4)n3)cc2)SCOC(=O)OC(C)C)c(Cl)c1 [Compound 33C] | 50 to 100% | 50 to 100% | 0 to 80% | – | – |
| COc1cc(C)c(/N=C(/N/N=C/c2ccc(-c3ncn(-c4ccc(OC(F)(F)F)cc4)n3)cc2)SCC(=O)O)c(C)c1.[Na+] [Compound 68C, 2-(((Z)-((4-methoxy-2,6-dimethylphenyl)imino)((E)-2-(4-(1-(4-(trifluoromethoxy)phenyl)-1H-1,2,4-triazol-3-yl)benzylidene)hydrazinyl)methyl)-thio)acetic acid sodium salt] | – | – | 0 to 80% | A (50-100) | A (50-100) |
| CCOCC(=O)OCS/C(=N\c1c(C)cccc1C)N/N=C/c1ccc(-c2ncn(-c3ccc(OC(F)(F)F)cc3)n2)cc1 [Compound 22C] | 50 to 100% | 50 to 100% | 0 to 80% | – | – |
| O=C1CS/C(=N\N=C\c2ccc(-c3ncn(-c4ccc(OC(F)(F)F)cc4)n3)cc2)N1c1ccccc1C1CC1 [Compound 112C] | 50 to 100% | 50 to 100% | 0 to 80% | – | – |
| CC(C)c1ccccc1N1C(=O)CS/C1=N\N=C\c1ccc(-c2ncn(-c3ccc(OC(F)(F)F)cc3)n2)cc1 [Compound 73C] | 50 to 100% | 50 to 100% | 0 to 80% | – | – |
| CC1CS/C(=N\N=C\c2ccc(-c3ncn(-c4ccc(OC(F)(F)F)cc4)n3)cc2)N1c1c(Cl)cccc1Cl (centres unmarked) [Compound 157C] | 50 to 100% | 50 to 100% | 0 to 80% | – | – |
| Cc1cccc(C)c1/N=C(/N/N=C/c1ccc(-c2ncn(-c3ccc(OC(F)(F)F)cc3)n2)cc1)SCC(=O)NCCCNC(=O)OC(C)(C)C [Compound 58C] | 50 to 100% | 50 to 100% | 0 to 80% | – | – |
| Cc1cccc(C)c1/N=C(/N/N=C/c1ccc(-c2ncn(-c3ccc(OC(F)(F)F)cc3)n2)cc1)SCC(=O)NCCCN [Compound 66C] | 50 to 100% | 50 to 100% | 0 to 80% | – | – |
| COc1ccc(C(C)/N=C(/N/N=C/c2ccc(-c3ncn(-c4ccc(OC(F)(F)F)cc4)n3)cc2)SCC(=O)O)cc1 (centres unmarked) [Compound 52C] | 0 to 50% | – | 0 to 80% | – | – |
| CCOCC(=O)OCS/C(=N\c1c(Cl)cc(OC)cc1Cl)N/N=C/c1ccc(-c2ncn(-c3ccc(OC(F)(F)F)cc3)n2)cc1 [Compound 32C] | – | – | 0 to 80% | – | – |
| COc1cc(Cl)c(/N=C(/N/N=C/c2ccc(-c3ncn(-c4ccc(OC(F)(F)F)cc4)n3)cc2)SCOC(=O)C(C)C)c(Cl)c1 [Compound 34C] | – | – | 0 to 80% | – | – |
| Cc1cccc(Cl)c1N1CS/C1=N\N=C\c1ccc(-c2ncn(-c3ccc(OC(F)(F)F)cc3)n2)cc1 [Compound 246C] | 50 to 100% | 50 to 100% | – | – | – |
| COC(=O)C1CC(c2ccc(/C=N/N=C3\SCC(=O)N3c3c(C)cccc3C)cc2)=NN1c1ccc(OC(F)(F)F)cc1 (centres unmarked) [Compound 110C] | 50 to 100% | 50 to 100% | – | – | – |
